Measured values reported in patent publication US4962277A, “Deletion analogues of magainin peptides” (priority 1988, dated 1990).
Like-named read-outs stand apart in the source and are kept apart here. No end group written: not given here.

What was measured:
human red blood cells = settings: pH 7
Escherichia coli = type: cell-based; settings: six hours; for % Inhibit, E. coli: 1.0×10^6 CFU/ml; for Effective Growth Inhibition Conc., E. coli: concentration at which the reported % inhibition (greater than 80%) was found, 100% at next higher concentration if below 100%
Protocol: (§1) Antimicrobial assays were carried out in 96 -well tissue culture plates. Each well was incubated with a given microorganism suspended in LB medium (Escherichia coli, and Staphylococcus epidermis or YTB medium (Candida albicans). Upon the addition of the peptides or their deletion analogues, (dissolved in 1×PBS, pH 7.0) each well contained a final cell density of 1.0×10^6 colony forming units (CFU)/ml. The final peptide concentrations used were 100 μg/ml., 75.0 μg/ml, 50.0 μg/ml, 25 μg/ml, and 10 μg/ml Concentrations of up to 500 μg/ml, however, were employed against C. albicans.
(§2) Addition of peptides to the wells was defined as time zero. At six hours, the plates were placed in a Titertek Multiskan apparatus and the O.D.620 determined. The plates as well as the initial innoculum were incubated at 37° C.
(§3) Five wells per plate contained media alone. while five others contained medium plus cells. These controls were used to eliminate the possibility of media contamination while providing a measure of uninhibited growth of the microorganisms. The measurements of 1/(change in optical in density) for the wells containing either the peptides or their deletion analogues in the above-mentioned varying concentrations with the colony forming units of E. coli or S. epidermis are shown in FIGS. 1 and 2. FIG. 1 is a graph of the measurements of 1/(change in optical density) for wells containing Magainin I or Magainin II peptides or their deletion analogues and E. coli. FIG. 1a is a graph pertaining to Magainin I (indicated by X) and its deletion analogues. (The deletion analogue wherein amino acid 23 omitted was not tested). FIG. 1b is a graph pertaining to Magainin II (indicated by X) and its deletion analogues. In both graphs, Z is a control of medium plus cells.
(§4) The degree of peptide activity was determined by comparing the deletion analogs with uninhibited growth of the control cells over a six-hour period. […] As listed in Table 1, M1C is Magainin I, C-terminal carboxyl carboxy-terminated), whereas M2A, is Magainin II, C-terminal amide (amide-terminated). The letter and number code after each M1C or M2A peptide indicates the amino acid residue deleted from the particular deletion analogue of Magainin I carboxY-terminated) or Magainin II (amide-terminated).

Staphylococcus epidermis = assay: Antimicrobial assay: growth inhibition in 96-well plates, O.D.620 at six hours; type: cell-based; settings: for % Inhibit, S. epidermis: 1.0×10^6 CFU/ml; for Effective Growth Inhibition Conc., S. epidermis: concentration at which the reported % inhibition (greater than 80%) was found, 100% at next higher concentration if below 100%
Protocol: as §1, §2, §3
FIG. 2 is a graph of the measurements of 1/(change in optical density) for wells containing Magainin I or Magainin II peptides or their deletion analogues and S. epidermis. FIG. 2a is a graph pertaining to Magainin I (indicated by X) and its deletion analogues. (The deletion analogue wherein amino acid 23 was deleted was not tested.) FIG. 2b is a graph pertaining to Magainin II (indicated by X) and its deletion analogues. In both graphs, Z is a control of medium plus cells. The measurements of 1/(change in optical density) as measured for the Magainin I and Magainin II peptides and their deletion analogues can be correlated to a measurement of their effectivness against E. coli and S. epidermis.
as §4

E. coli = assay: Kinetics of microbial killing; type: cell-based; settings: peptide 25 μg/ml; E. coli 1.0×10^6 CFU/ml; 37° C.
Protocol: Dissolved peptide preparations of amide-terminated Magainin II, amide-terminated Magainin II with glycine (amino acid 18) deleted, and amide-terminated Magainin II with glutamic acid (amino acid 19) deleted were added to test tubes containing E. coli (1.0×10^6 CFU/ml) to a final peptide concentration of 25 μg/ml. At the time points of 15, 30, 45, and 60 minutes after the addition, indicated in FIG. 3, 10.0 µl were removed from each tube and sequentially diluted by a factor of ten four times in LB medium. The number of bacteria at each time point was determined by plating 10.0 μl of the 10^-2, 10^-3, and 10^-4 dilutions. The log of the number of bacteria from these dilutions at each time point was determined, and was plotted on the graph in FIG. 3. Two controls, one with medium alone and one with no peptides were both incubated along with the tubes containing cells and peptides. The tubes as well as the agar plates used were incubated at 37° C.

GIGKFHSAGKFGKAFVGEIMKS [M1C-L^6]
% Hemolysis of Human Red Blood Cells (human red blood cells): 0%

GIGKFHSAKKFGKAFVGEIMNS-NH2 [M2A-L^6]
% Inhibit, E. coli (Escherichia coli; peptide 100 μg/ml): 0% | % Inhibit, S. epidermis (Staphylococcus epidermis; peptide 100 μg/ml): 0% | % Hemolysis of Human Red Blood Cells (human red blood cells): 1%

GIGKFLHSAGKFGKAFGEIMKS [M1C-V^17]
% Hemolysis of Human Red Blood Cells (human red blood cells): 1%

GIGKFLHSAGKFGKAFVGEIKS [M1C-M^21]
% Hemolysis of Human Red Blood Cells (human red blood cells): 1%

GIGKFLHSAGKFGKAFVGEIMK [M1C-S^23]
% Hemolysis of Human Red Blood Cells (human red blood cells): 0%

GIGKFLHSAGKFGKAFVGEIMKS [Peptide M1C, Magainin I, reference compound]
% Hemolysis of Human Red Blood Cells (human red blood cells): 2%

GIGKFLHSAGKFGKAFVGEMKS [M1C-I^20]
% Hemolysis of Human Red Blood Cells (human red blood cells): 1%

GIGKFLHSAGKFGKAFVGIMKS [M1C-E^19]
% Hemolysis of Human Red Blood Cells (human red blood cells): 1%

GIGKFLHSAKKFGKAFGEIMNS-NH2 [M2A-V^17]
Effective Growth Inhibition Conc., E. coli (Escherichia coli): 50 µg/mL | % Inhibit, E. coli (Escherichia coli; peptide 50 μg/ml): 87% | % Inhibit, S. epidermis (Staphylococcus epidermis; peptide 100 μg/ml): 0% | % Hemolysis of Human Red Blood Cells (human red blood cells): 0%

GIGKFLHSAKKFGKAFVEIMNS-NH2 [M2A-G^18]
Effective Growth Inhibition Conc., E. coli (Escherichia coli): 10 µg/mL | Effective Growth Inhibition Conc., E. coli (Escherichia coli; listed as M2A-G^3): 100 µg/mL | Effective Growth Inhibition Conc., E. coli (Escherichia coli; listed as M2A-G^13): 25 µg/mL | % Inhibit, E. coli (Escherichia coli; peptide 10 μg/ml): 94% | % Inhibit, E. coli (Escherichia coli; peptide 25 μg/ml): 89% | % Inhibit, E. coli (Escherichia coli; peptide 100 μg/ml): 0% | % Inhibit, E. coli (Escherichia coli; peptide 100 μg/ml, listed as M2A-G^3): 93% | Effective Growth Inhibition Conc., S. epidermis (Staphylococcus epidermis): 10 µg/mL | % Inhibit, S. epidermis (Staphylococcus epidermis; peptide 10 μg/ml): 89% | % Inhibit, S. epidermis (Staphylococcus epidermis; peptide 50 μg/ml): 80% | % Inhibit, S. epidermis (Staphylococcus epidermis; peptide 100 μg/ml): 0% | time until all E. coli cells were killed after addition of the peptide (E. coli): ≤ 15 min

GIGKFLHSAKKFGKAFVGEIMN-NH2 [M2A-S^23]
Effective Growth Inhibition Conc., E. coli (Escherichia coli): 25 µg/mL | Effective Growth Inhibition Conc., E. coli (Escherichia coli; listed as M2A-S^8): 75 µg/mL | % Inhibit, E. coli (Escherichia coli; peptide 25 μg/ml): 100% | % Inhibit, E. coli (Escherichia coli; peptide 75 μg/ml): 90% | % Inhibit, S. epidermis (Staphylococcus epidermis; peptide 100 μg/ml): 0%

GIGKFLHSAKKFGKAFVGEIMNS [Peptide M2-Carboxy, Magainin II, reference compound]
% Inhibit, E. coli (Escherichia coli; peptide 50 μg/ml): 100%

GIGKFLHSAKKFGKAFVGEIMNS-NH2 [Peptide M2A, reference compound]
Effective Growth Inhibition Conc., E. coli (Escherichia coli): 25 µg/mL | % Inhibit, E. coli (Escherichia coli; peptide 25 μg/ml): 100% | Effective Growth Inhibition Conc., S. epidermis (Staphylococcus epidermis): 25 µg/mL | % Inhibit, S. epidermis (Staphylococcus epidermis; peptide 25 μg/ml): 93% | time until all E. coli cells were killed after addition of the peptide (E. coli): much slower | % Hemolysis of Human Red Blood Cells (human red blood cells): 4%

GIGKFLHSAKKFGKAFVGEIMS-NH2 [M2A-N^22]
Effective Growth Inhibition Conc., E. coli (Escherichia coli): 25 µg/mL | % Inhibit, E. coli (Escherichia coli; peptide 25 μg/ml): 100% | Effective Growth Inhibition Conc., S. epidermis (Staphylococcus epidermis): 75 µg/mL | % Inhibit, S. epidermis (Staphylococcus epidermis; peptide 75 μg/ml): 100% | % Hemolysis of Human Red Blood Cells (human red blood cells): 2%

GIGKFLHSAKKFGKAFVGEINS-NH2 [M2A-M^21]
Effective Growth Inhibition Conc., E. coli (Escherichia coli): 25 µg/mL | % Inhibit, E. coli (Escherichia coli; peptide 25 μg/ml): 95% | Effective Growth Inhibition Conc., S. epidermis (Staphylococcus epidermis): 75 µg/mL | % Inhibit, S. epidermis (Staphylococcus epidermis; peptide 75 μg/ml): 90% | % Hemolysis of Human Red Blood Cells (human red blood cells): 0%

GIGKFLHSAKKFGKAFVGEMNS-NH2 [M2A-I^20]
Effective Growth Inhibition Conc., E. coli (Escherichia coli): 25 µg/mL | % Inhibit, E. coli (Escherichia coli; peptide 25 μg/ml): 84% | % Inhibit, E. coli (Escherichia coli; peptide 100 μg/ml): 0% | % Inhibit, S. epidermis (Staphylococcus epidermis; peptide 100 μg/ml): 0% | % Hemolysis of Human Red Blood Cells (human red blood cells): 0%

GIGKFLHSAKKFGKAFVGIMNS-NH2 [M2A-E^19]
Effective Growth Inhibition Conc., E. coli (Escherichia coli): 10 µg/mL | % Inhibit, E. coli (Escherichia coli; peptide 10 μg/ml): 92% | Effective Growth Inhibition Conc., S. epidermis (Staphylococcus epidermis): 10 µg/mL | % Inhibit, S. epidermis (Staphylococcus epidermis; peptide 10 μg/ml): 89% | time until all E. coli cells were killed after addition of the peptide (E. coli): ≤ 15 min | % Hemolysis of Human Red Blood Cells (human red blood cells): 0%

GIGKFLHSAKKFGKAVGEIMNS-NH2 [M2A-F^16]
Effective Growth Inhibition Conc., E. coli (Escherichia coli): 100 µg/mL | % Inhibit, E. coli (Escherichia coli; peptide 100 μg/ml): 92% | % Inhibit, E. coli (Escherichia coli; peptide 100 μg/ml, listed as M2A-F^5): 0% | % Inhibit, E. coli (Escherichia coli; peptide 100 μg/ml, listed as M2A-F^12): 0% | % Inhibit, S. epidermis (Staphylococcus epidermis; peptide 100 μg/ml): 0% | % Hemolysis of Human Red Blood Cells (human red blood cells): 1%

GIGKFLHSAKKFGKFVGEIMNS-NH2 [M2A-A^15]
Effective Growth Inhibition Conc., E. coli (Escherichia coli): 10 µg/mL | Effective Growth Inhibition Conc., E. coli (Escherichia coli; listed as M2A-A^9): 75 µg/mL | % Inhibit, E. coli (Escherichia coli; peptide 10 μg/ml): 95% | % Inhibit, E. coli (Escherichia coli; peptide 75 μg/ml): 82% | Effective Growth Inhibition Conc., S. epidermis (Staphylococcus epidermis): 25 µg/mL | % Inhibit, S. epidermis (Staphylococcus epidermis; peptide 25 μg/ml): 90% | % Inhibit, S. epidermis (Staphylococcus epidermis; peptide 100 μg/ml): 0%

GIGKFLSAGKFGKAFVGEIMKS [M1C-H^7]
% Hemolysis of Human Red Blood Cells (human red blood cells): 0%

GIGKFLSAKKFGKAFVGEIMNS-NH2 [M2A-H^7]
Effective Growth Inhibition Conc., E. coli (Escherichia coli): 100 µg/mL | % Inhibit, E. coli (Escherichia coli; peptide 100 μg/ml): 90% | % Inhibit, S. epidermis (Staphylococcus epidermis; peptide 100 μg/ml): 0% | % Hemolysis of Human Red Blood Cells (human red blood cells): 0%
